# Experiments:
# S.D. rats = assay: Recovery of pain threshold after substance P injection (Randall-Sellitto method); format: in vivo; conditions: male S.D. rats, oral 5% gum arabic suspension 10 ml/kg, substance P 25 ng/0.1 ml s.c. in left hind paw
# Method: Using 6-week-old male S.D. rats (7 rats in each group), the pain threshold of each rat's left hind paw plantar was measured using an Analgesy-Meter (product of Unicom) in accordance with the Randall-Sellitto method [Randall, L. O. and Sellitto, J. J., Arch. Int. Pharmacodyn., 111, 409 (1957)]. The value thus obtained was termed “pre-value”.
# One hour after the measurement of the pre-value, a 5% gum arabic suspension containing the compound of the invention was orally administered to the rats of the test group in an amount of 10 ml/kg, whereas a 5% gum arabic suspension (not containing the compound of the invention) was orally administered to the rats of the control group in an amount of 10 ml/kg.
# One hour later, a physiological saline solution containing substance P (25 ng/0.1 ml) was subcutaneously injected into the left hind paw plantar of each rat.
# The pain threshold of each rat's left hind paw was measured in the same manner as above at predetermined time intervals from the substance P injection. The measured value was termed “post-value”.
# The recovery (%) of the pain threshold was calculated from the post-values and the pre-values of the test group and the control group, by means of the following formula: [formula]
# [1] = time of measurement 60 minutes later
smiles,measurement,setting,value
"CCCCc1cc(/C=C/c2ccc(Cl)cc2)n2nccc2n1 [Example 8, (E)-5-n-butyl-7-[2-(4-chlorophenyl)ethenyl]pyrazolo[1,5-a]pyrimidine]",Recovery (%) of the pain threshold (the highest recovery %),S.D. rats; time of measurement 30 minutes later,36.2%
"CCCCc1cc(/C(=C/c2cc(OC)c(OC)c(OC)c2)SC)n2nccc2n1 [Example 12, (Z)-5-n-butyl-7-[1-methylthio-2-(3,4,5-trimethoxyphenyl)ethenyl]pyrazolo[1,5-a]pyrimidine]",Recovery (%) of the pain threshold (the highest recovery %),S.D. rats; [1],41.5%
"CCCCc1cc(/C=C/c2cc(OC)c(OC)c(OC)c2)n2nccc2n1 [Example 1, (E)-5-n-butyl-7-[2-(3,4,5-trimethoxyphenyl)ethenyl]pyrazolo[1,5-a]pyrimidine]",Recovery (%) of the pain threshold (the highest recovery %),S.D. rats; [1],47.8%
"CCCCc1cc(/C(=C\c2cc(OC)c(OC)c(OC)c2)C(=O)O)n2nccc2n1 [Example 40, (E) 2-(5-n-butylpyrazolo[1,5-a]pyrimidin-7-yl)-3-(3,4,5-trimethoxyphenyl)acrylic Acid]",Recovery (%) of the pain threshold (the highest recovery %),S.D. rats; [1],47.2%
"CCCCc1cc(/C(=C\c2cc(OC)c(O)c(OC)c2)C(=O)O)n2nccc2n1 [Example 109, (E) 2-(5-n-butylpyrazolo[1,5-a]pyrimidin-7-yl)-3-(4-hydroxy-3,5-dimethoxyphenyl)acrylic acid]",Recovery (%) of the pain threshold (the highest recovery %),S.D. rats; [1],52.1%
same,melting point,,> 152 °C (dec.)

# Source: US6372749B1, “Pyrazolo[1,5-a]pyrimidine derivatives” (Otsuka Pharmaceutical Factory, Inc., priority 1998, dated 2002)
